{
  "source": "patent US20200268720A1",
  "about": "“METHODS OF USE OF A CLASS IIA HDAC INHIBITOR” (GlaxoSmithKline LLC, priority 2016, published 2020)",
  "key": {"[1]": {"tested_on": "mouse MMTV-PyMT breast tumor cell lines", "experiment": "In vitro cell death assay (CellTiter-Glo), mouse lines", "assay_type": "cell-based", "details": "0, 0.1, 1, 10 μM, 48 hours", "procedure": "(§1) The human breast cancer cell lines (BT20, MCF7, HCC202, T47D, MDA-MB-453 and MDA-MB-436) were obtained from ATCC. Prior to use, cell line authentication was performed by either STR profiling at Dana-Farber Cancer Institute or by Fluidigm based fingerprinting with a panel of SNPs at The Broad Institute. Cell lines were tested for mycoplasma with the MycoAlert PLUS Mycoplasma Detection Kit (Lonza LT07) according to manufacturer's instructions. Mouse breast tumor cell lines were established from 4 different MMTV-PyMT tumor bear mice. Mouse breast tumor cell line 7333 was implanted into wild-type littermates and once the tumor formed it was removed and used to generate the tumor cell line “MMTV”. All cells were plated at 1E4 cells/well in a 96 well plate. Cells were treated for 48 hours and CellTiter-Glo was used to assess cell viability."}, "MMTV-PyMT tumors": {"tested_on": "MMTV-PyMT tumors", "experiment": "Combination with chemotherapy (Carboplatin, Paclitaxel) in MMTV-PyMT mice", "assay_type": "in vivo, mouse"}, "[2]": {"tested_on": "metastatic lesions in the lung", "experiment": "Pulmonary metastasis analysis", "assay_type": "in vivo, mouse", "procedure": "Lungs were removed from animals as described above. […] The number of metastatic foci are determined on sections taken every […] throughout the whole lung^3,33 and quantitation was performed blinded by an animal pathologist."}, "[3]": {"tested_on": "human breast cancer cell lines (BT20, MCF7, HCC202, T47D, MDA-MB-453 and MDA-MB-436)", "experiment": "In vitro cell death assay (CellTiter-Glo), human lines", "assay_type": "cell-based", "details": "0, 0.1, 1, 10 μM, 48 hours", "procedure": "as §1"}, "Human monocytes": {"tested_on": "Human monocytes", "experiment": "In vitro antigen presenting cell (APC) and T cell proliferation experiments", "assay_type": "cell-based", "description": "Blood was collected from healthy donors according to the guidelines of the American Association of Blood Banks and under an IRB-approved informed consent form was purchased from Research Blood Components (Boston, Mass.). Human monocytes were isolated from buffy coat preparations via positive selection as per the manufacturer's instructions (StemCell Technologies, Catalog #18058). Monocytes were differentiated into antigen presenting cells in RPMI Medium 1640 supplemented with GLUTAMAX™ (GIBCO), fetal bovine serum (10% v/v), IL-4 (10 ng/ml), GM-CSF (50 ng/ml), penicillin (100 U/ml), and streptomycin (100 ug/ml) for 5 days in the presence of either 0.1% (v/v) DMSO or 300 nM TMP195. Cells were collected by washing and incubation with a solution of 5 mM EDTA in PBS (Ca2^+ and Mg2^+-free), prior to flow cytometric analysis of CD80 (Biolegend #305208) and CD86 (Biolegend #305418). Alternatively, harvested APCs were counted and co-cultured in culture medium (no DMSO or inhibitor present) with heterologous CD4^+ T cells (isolated from buffy coats via negative selection following manufacturer's instructions, StemCell Technologies, Catalog #15062) that had been labeled with CELLTRACE™ CFSE (ThermoFisher catalog #C34554) at a 10:1 T cell:APC ratio. T cell proliferation was stimulated by the addition of 200 pg/ml anti-CD3 (Biolegend Catalog #317326), and proliferation was quantified after 72 hours of co-culture by the dilution of CFSE using FlowJo software (version 9.4, Treestar, Inc.)."}, "[4]": {"details": "TMP195 50 mg/kg IP daily plus PTX 10 mg/kg IV"}, "[5]": {"details": "IL-4 and GM-CSF, 5 days, 300 nM TMP195 vs 0.1% DMSO"}},
  "note": "Entries after “also recorded” stand apart in the source; their conditions may differ.",
  "data": [
    {"smiles": "CC(C)(CNC(=O)c1cccc(-c2noc(C(F)(F)F)n2)c1)c1coc(-c2ccccc2)n1", "note": "[TMP195, N-(2-methyl-2-(2-phenyloxazol-4-yl)propyl)-3-(5-(trifluoromethyl)-1,2,4-oxadiazol-3-yl)benzamide]", "values": [
      {"measurement": "cell viability, 6 mouse MMTV-PyMT cell lines", "setting": "[1]", "result": "not directly cytotoxic; also recorded: does not affect cell viability"},
      {"measurement": "tumor burden, combination with Carboplatin", "setting": "MMTV-PyMT tumors; TMP195 50 mg/kg IP daily plus Carboplatin 50 mg/kg IV every 5 days", "result": "significant reduction in tumor burden compared to either monotherapy"},
      {"measurement": "durability of efficacy, combination of TMP195 and PTX", "setting": "MMTV-PyMT tumors; [4]", "result": "at least 29 days"},
      {"measurement": "durability, combination of TMP195 plus PTX (figure legend)", "setting": "MMTV-PyMT tumors; [4]", "result": "durable for at least one month"},
      {"measurement": "tumor burden, combination with Paclitaxel", "setting": "MMTV-PyMT tumors; TMP195 50 mg/kg IP daily plus Paclitaxel 10 mg/kg IV every 5 days", "result": "significant reduction in tumor burden compared to either monotherapy"},
      {"measurement": "metastatic lesions in the lung", "setting": "[2]; initial tumor burden <400 mm^3, 24 days of treatment", "result": "significant decrease"},
      {"measurement": "metastatic pulmonary lesions", "setting": "[2]; tumor burden 200-600 mm^3 at start, 14 days of treatment", "result": "decrease"},
      {"measurement": "cell viability, 6 human breast cancer cell lines", "setting": "[3]", "result": "not directly cytotoxic; also recorded: does not affect cell viability"},
      {"measurement": "T cell co-stimulatory function of monocytes differentiated to antigen presenting cells", "setting": "Human monocytes; [5]", "result": "promoted T cell co-stimulatory function"},
      {"measurement": "proportion of cells expressing the co-stimulatory molecule CD86", "setting": "Human monocytes; [5]", "result": "increase"},
      {"measurement": "proliferation (Division Index) of CFSE-labeled naive CD4+ T cells co-cultured with differentiated monocytes", "setting": "Human monocytes; monocytes differentiated in 300 nM TMP195 vs DMSO, 10:1 T cell:APC", "result": "higher degree of proliferation"}
    ]}
  ]
}
